Laboratory results: patent publication US20230398126A1 (priority 2022, published 2023)

Tests used:
MP12 virus = assay: microbe, parasite or virus in culture; format: cell-based; conditions: Rift Valley fever virus, Vero C1008
in vitro = conditions: African green monkey
virulent RVFVs = conditions: cited from earlier work
[1] = test system: MP12 vaccine and its divergents; conditions: cited from earlier work

Row | SMILES | EC50 (MP12 virus) [µM] | CC50 (in vitro) [µM] | antiviral activity on tested virulent RVFVs (virulent RVFVs) | inhibition of MP12 vaccine and its divergents [1]
1 | NC(=O)c1ccc2c(c1)n(Cc1cccc(F)c1)c(=O)c1ccnn12 [WMA-RV2] | 6.96 | > 1280 | – | –
2 | NC(=O)c1ncn([C@@H]2O[C@H](CO)[C@@H](O)[C@H]2O)n1 [Ribavirin] | – | – | antiviral activity | inhibited
3 | Cc1cc(C)c(C)c(S(=O)(=O)N2CCC(c3c[nH]c4c(C)cccc34)CC2)c1C [WMA-RV5] | 9.14 | > 1280 | – | –
4 | CC(Cl)C(=O)N1CCCN(c2nc3ccccc3nc2-c2ccccc2)CC1 (centres unmarked) [WMA-RV3] | 2.08 | 363 | – | –
5 | Cc1nn(-c2ccccc2)c2sc(C(=O)NC(C)C)cc12 [WMA-RV8] | 13 | > 1280 | – | –
6 | CC(Cl)C(=O)N1CCN(c2nccc(-c3ccc(C(C)(C)C)cc3)n2)CC1 (centres unmarked) [WMA-RV4] | 3.19 | 168 | – | –
7 | CN1C(=O)c2cccnc2Sc2cc(C(=O)Nc3ccc(Cl)cc3)ccc21 [WMA-RV1] | 0.863 | 320 | – | –
8 | Cc1ccc(CN2CCCN(c3ccc(NC(=O)c4ccccc4C)cn3)CC2)cc1 [WMA-RV6] | 1.03 | 692 | – | –
9 | O=c1cnn([C@@H]2O[C@H](CO)[C@@H](O)[C@H]2O)c(=O)[nH]1 [Compound 6-azauridine, 6-azauridine] | – | – | antiviral activity | inhibited
10 | Cc1ccccc1CN1CCCN(c2cccc(NC(=O)c3cccs3)c2)C1=O [WMA-RV7] | 15.5 | > 1280 | – | –
